The experiment deals with MCH receptors. Briefly: MCH receptor activity class (method not given). Conditions: class by percent of control at 10^-7 M or IC50.

With `CN(C)c1nc(N[C@H]2CC[C@@H](NC(=S)Nc3ccc(F)c(Cl)c3)CC2)nc2c1CCCC2` [compound 2071], under “MCH receptor”, the class is 3 (Class 3 The value of percent of control at 10^−7 M was more than 60% or the value of IC50 was more than 200 nM.).
The same measure, in the same setting: then `CN(C)c1ccc(NC(=S)N[C@H]2CC[C@@H](Nc3nc4c(c(N(C)C)n3)CCCC4)CC2)cc1` [compound 2072], with 3 (Class 3 The value of percent of control at 10^−7 M was more than 60% or the value of IC50 was more than 200 nM.); and `CCN(CC)CCCNC(=S)N[C@H]1CC[C@@H](Nc2nc3c(c(N(C)C)n2)CCCC3)CC1` [compound 2073], with 3 (Class 3 The value of percent of control at 10^−7 M was more than 60% or the value of IC50 was more than 200 nM.).
The same measure, in the same setting: with `CN(C)c1nc(N[C@H]2CC[C@@H](NC(=S)NCCN3CCOCC3)CC2)nc2c1CCCC2` [compound 2074] the figure was 3 (Class 3 The value of percent of control at 10^−7 M was more than 60% or the value of IC50 was more than 200 nM.); with `CN(C)c1nc(N[C@H]2CC[C@@H](NC(=S)Nc3ccc(-c4nc5c6ccccc6c6ccccc6c5o4)cc3)CC2)nc2c1CCCC2` [compound 2075], 3 (Class 3 The value of percent of control at 10^−7 M was more than 60% or the value of IC50 was more than 200 nM.).
The same measure, in the same setting: then `CN(C)c1nc(N[C@H]2CC[C@@H](NC(=S)Nc3cccnc3)CC2)nc2c1CCCC2` [compound 2076], with 3 (Class 3 The value of percent of control at 10^−7 M was more than 60% or the value of IC50 was more than 200 nM.); and `CN(C)c1ccc(/N=N/c2ccc(NC(=S)N[C@H]3CC[C@@H](Nc4nc5c(c(N(C)C)n4)CCCC5)CC3)cc2)cc1` [compound 2077], with 3 (Class 3 The value of percent of control at 10^−7 M was more than 60% or the value of IC50 was more than 200 nM.).
For `CN(C)c1nc(N[C@H]2CC[C@@H](NC(=S)NCCCN3CCOCC3)CC2)nc2c1CCCC2` [compound 2078], where the note is “MCH receptor”, the class is on record as 3 (Class 3 The value of percent of control at 10^−7 M was more than 60% or the value of IC50 was more than 200 nM.).
`CN(C)c1nc(N[C@H]2CC[C@@H](NC(=S)NCc3ccc(Cl)cc3)CC2)nc2c1CCCC2` [compound 2079]: the class (MCH receptor) is given as 3 (Class 3 The value of percent of control at 10^−7 M was more than 60% or the value of IC50 was more than 200 nM.).
Take `CN(C)c1nc(N[C@H]2CC[C@@H](NC(=S)Nc3ccc(/N=N/c4ccccc4)cc3)CC2)nc2c1CCCC2` [compound 2080]: the class (MCH receptor) is 3 (Class 3 The value of percent of control at 10^−7 M was more than 60% or the value of IC50 was more than 200 nM.).
As for `CN(C)c1nc(N[C@H]2CC[C@@H](NC(=S)NCCN3CCCCC3)CC2)nc2c1CCCC2` [compound 2081], the class (MCH receptor) is 3 (Class 3 The value of percent of control at 10^−7 M was more than 60% or the value of IC50 was more than 200 nM.).
On the same count and under the same terms, with `CN(C)c1nc(N[C@H]2CC[C@@H](NC(=S)Nc3ccc(-n4cccn4)cc3)CC2)nc2c1CCCC2` [compound 2082] the figure was 3 (Class 3 The value of percent of control at 10^−7 M was more than 60% or the value of IC50 was more than 200 nM.).
Still for that read-out and setting: then `CN(C)c1nc(N[C@H]2CC[C@@H](NC(=S)Nc3cccc4nsnc34)CC2)nc2c1CCCC2` [compound 2083], with 3 (Class 3 The value of percent of control at 10^−7 M was more than 60% or the value of IC50 was more than 200 nM.); and `CN(C)c1nc(N[C@H]2CC[C@@H](NC(=S)Nc3ccc4nsnc4c3)CC2)nc2c1CCCC2` [compound 2084], with 3 (Class 3 The value of percent of control at 10^−7 M was more than 60% or the value of IC50 was more than 200 nM.); and `Cc1noc(C)c1NC(=S)N[C@H]1CC[C@@H](Nc2nc3c(c(N(C)C)n2)CCCC3)CC1` [compound 2085], with 3 (Class 3 The value of percent of control at 10^−7 M was more than 60% or the value of IC50 was more than 200 nM.).
For the compound `CN(C)c1nc(N[C@H]2CC[C@@H](NC(=S)Nc3ccc(-c4cnco4)cc3)CC2)nc2c1CCCC2` [compound 2086], the class is reported as 3 (Class 3 The value of percent of control at 10^−7 M was more than 60% or the value of IC50 was more than 200 nM.).
Still for that read-out and setting: then `CN(C)c1nc(N[C@H]2CC[C@@H](NC(=S)Nc3ccc(N4CCOCC4)nc3)CC2)nc2c1CCCC2` [compound 2087], with 3 (Class 3 The value of percent of control at 10^−7 M was more than 60% or the value of IC50 was more than 200 nM.); and `CN(C)c1nc(N[C@H]2CC[C@@H](NC(=S)Nc3ccc(Oc4ccccc4)nc3)CC2)nc2c1CCCC2` [compound 2088], with 3 (Class 3 The value of percent of control at 10^−7 M was more than 60% or the value of IC50 was more than 200 nM.); and `CN(C)c1cc(N[C@H]2CC[C@@H](NC(=O)Nc3ccccc3Cl)CC2)nc2ccccc12` [compound 2089], with 2 (Class 2: The value of percent of control at 10^−7 M was from 40% to 60% or the value of IC′50 was from 50 nM to 200 nM.).
Still for that read-out and setting: with `Cc1cccc(C)c1NC(=O)N[C@H]1CC[C@@H](Nc2cc(N(C)C)c3ccccc3n2)CC1` [compound 2090] the figure was 3 (Class 3 The value of percent of control at 10^−7 M was more than 60% or the value of IC50 was more than 200 nM.).
On the same count and under the same terms, then `CN(C)c1cc(N[C@H]2CC[C@@H](NC(=O)Nc3ccc(F)cc3F)CC2)nc2ccccc12` [compound 2091], with 3 (Class 3 The value of percent of control at 10^−7 M was more than 60% or the value of IC50 was more than 200 nM.).
As for `CCc1cccc(C)c1NC(=O)N[C@H]1CC[C@@H](Nc2cc(N(C)C)c3ccccc3n2)CC1` [compound 2092, N-(cis-4-{[4-(dimethylamino)quinolin-2-yl]amino}cyclohexyl)-N′-(2-ethyl-6-methylphenyl)urea], the class is 2 (Class 2: The value of percent of control at 10^−7 M was from 40% to 60% or the value of IC′50 was from 50 nM to 200 nM.).
Same read-out and setting: then `CN(C)c1cc(N[C@H]2CC[C@@H](NC(=O)Nc3ccc(F)cc3)CC2)nc2ccccc12` [compound 2094], with 3 (Class 3 The value of percent of control at 10^−7 M was more than 60% or the value of IC50 was more than 200 nM.); and `CSc1ccc(NC(=O)N[C@H]2CC[C@@H](Nc3cc(N(C)C)c4ccccc4n3)CC2)cc1` [compound 2095], with 3 (Class 3 The value of percent of control at 10^−7 M was more than 60% or the value of IC50 was more than 200 nM.).
The same measure, in the same setting: then `CN(C)c1cc(N[C@H]2CC[C@@H](NC(=O)Nc3ccccc3C(F)(F)F)CC2)nc2ccccc12` [compound 2096], with 3 (Class 3 The value of percent of control at 10^−7 M was more than 60% or the value of IC50 was more than 200 nM.); and `Cc1cc(C)c(NC(=O)N[C@H]2CC[C@@H](Nc3cc(N(C)C)c4ccccc4n3)CC2)c(C)c1` [compound 2097, N-(cis-4-{[4-(dimethylamino)quinolin-2-yl]amino}cyclohexyl)-N′-mesitylurea], with 1 (Class 1: The value of percent of control at 10^−7 M was less than 40% or the value of IC50 was less than 50 nM.); and `Cc1ccccc1NC(=O)N[C@H]1CC[C@@H](Nc2cc(N(C)C)c3ccccc3n2)CC1` [compound 2098], with 3 (Class 3 The value of percent of control at 10^−7 M was more than 60% or the value of IC50 was more than 200 nM.).
In the case of `CN(C)c1cc(N[C@H]2CC[C@@H](NC(=O)Nc3c(Cl)cc(Cl)cc3Cl)CC2)nc2ccccc12` [compound 2099, N-(cis-4-{[4-(dimethylamino)quinolin-2-yl]amino}cyclohexyl)-N′-(2,4,6-trichlorophenyl)urea], the class is 2 (Class 2: The value of percent of control at 10^−7 M was from 40% to 60% or the value of IC′50 was from 50 nM to 200 nM.).
Same read-out and setting: with `CN(C)c1cc(N[C@H]2CC[C@@H](NC(=O)Nc3c(F)cc(Br)cc3Br)CC2)nc2ccccc12` [compound 2101] the figure was 2 (Class 2: The value of percent of control at 10^−7 M was from 40% to 60% or the value of IC′50 was from 50 nM to 200 nM.); with `CCc1cccc(CC)c1NC(=O)N[C@H]1CC[C@@H](Nc2cc(N(C)C)c3ccccc3n2)CC1` [compound 2102], 1 (Class 1: The value of percent of control at 10^−7 M was less than 40% or the value of IC50 was less than 50 nM.).
The same measure, in the same setting: with `CN(C)c1cc(N[C@H]2CC[C@@H](NC(=O)Nc3c(Cl)cccc3C(F)(F)F)CC2)nc2ccccc12` [compound 2103] the figure was 3 (Class 3 The value of percent of control at 10^−7 M was more than 60% or the value of IC50 was more than 200 nM.); with `Cc1cccc(Cl)c1NC(=O)N[C@H]1CC[C@@H](Nc2cc(N(C)C)c3ccccc3n2)CC1` [compound 2104], 3 (Class 3 The value of percent of control at 10^−7 M was more than 60% or the value of IC50 was more than 200 nM.).
For the compound `CN(C)c1cc(N[C@H]2CC[C@@H](NC(=O)NCc3ccccc3Cl)CC2)nc2ccccc12` [compound 2105], the class is reported as 2 (Class 2: The value of percent of control at 10^−7 M was from 40% to 60% or the value of IC′50 was from 50 nM to 200 nM.).
On the same count and under the same terms, then `CCc1cccc(C(C)C)c1NC(=O)N[C@H]1CC[C@@H](Nc2cc(N(C)C)c3ccccc3n2)CC1` [compound 2106, N-(cis-4-{[4-(dimethylamino)quinolin-2-yl]amino}cyclohexyl)-N′-(2-ethyl-6-isopropylphenyl)urea], with 2 (Class 2: The value of percent of control at 10^−7 M was from 40% to 60% or the value of IC′50 was from 50 nM to 200 nM.).
Regarding `CCc1ccccc1NC(=O)N[C@H]1CC[C@@H](Nc2cc(N(C)C)c3ccccc3n2)CC1` [compound 2107], the class is 3 (Class 3 The value of percent of control at 10^−7 M was more than 60% or the value of IC50 was more than 200 nM.).
The same measure, in the same setting: then `CN(C)c1cc(N[C@H]2CC[C@@H](NC(=O)Nc3ccccc3I)CC2)nc2ccccc12` [compound 2108], with 3 (Class 3 The value of percent of control at 10^−7 M was more than 60% or the value of IC50 was more than 200 nM.); and `Cc1cccc(C(C)C)c1NC(=O)N[C@H]1CC[C@@H](Nc2cc(N(C)C)c3ccccc3n2)CC1` [compound 2109, N-(cis-4-{[4-(dimethylamino)quinolin-2-yl]amino}cyclohexyl)-N′-(2-isopropyl-6-methylphenyl)urea], with 2 (Class 2: The value of percent of control at 10^−7 M was from 40% to 60% or the value of IC′50 was from 50 nM to 200 nM.).

The record behind these values is US20050197350A1, “Novel quinoline, tetrahydroquinazoline, and pyrimidine derivatives and methods of treatment related to the use thereof” (TAISHO PHARMACEUTICAL CO., LTD., priority 2003, published 2005).
